Data published in patent US20050192228A1, “Tripeptide derivatives for the treatment of neurodegenerative diseases” (priority 2001, published 2005).

Key:
Format in all cases: in vivo, Male Wistar rats
[1] = tested on: glucocorticoid receptors of the hippocampus; test: Dexamethasone model: determination of the corticoide receptors in the hippocampus (3H-dexamethasone binding); details: for Type I receptors in Femtomol/mg protein: dexamethasone 50 mg/kg/day, hippocampi removed after the last learning session; for effect on number of receptors of hippocampus neurons (in words): dexamethasone model
Method: (§1) 40 rats were kept and operated as described above. Then, they were divided into the following groups: • one group of 10 rats which received 5 μl/day of physiological serum • one group of 30 rats which received 50 mg/kg/day dexamethasone, dissolved in physiological serum.
After the last learning session at 10.00 a.m., the rats were sacrificed by means of decapitation, and the hippocampi were quickly removed and put on a plate cooled to 0° C. The number of glucocorticoid receptors was determined by a binding method using a labeled corticoid and a specific inhibitor to the binding of the corticoid to the receptor (here a total agonist). The protein content was measured by Lowry's method.
The hippocampi of each rat were homogenized in 2 ml of sodium EDTA Glycerol molybdate buffer. The homogenate was centrifugated at 100.000 g for 60 minutes. An aliquot of the supernatant was diluted in distilled water, and the protein content was measured by Lowry's method.
The rest of the supernatant was divided into three parts of 0.2 ml each. Increasing concentrations (25, 50 and 75 nmoles/ml) of dexamethasone 3H (Amersham 50 Ci/mM) were added to these parts. Three other preparations were carried out under the same conditions, while a saturating quantity of a total […] of the receptors (RU 28362) was added to obtain a non-specific binding of the labeled dexamethasone.
After one night of incubation at 4° C., charcoal/dextran was added to absorb […] dexamethasone. After centrifugation, the radioactivity of the supernatant was measured by liquid scintillation.
The radioactive quantities of the dexamethasone bound to the protein content are recorded. Results are expressed in femtomoles of the labeled corticoid bound to the receptor per mg of proteins.

hippocampal arborization = test: Vincristine model: loss of the hippocampal arborization; details: vincristine 5 μg/kg/day
Method: Vincristine is an anticarcinogen that is used as a synchronizing agent. This molecule binds to the spindle of microtubules, thus blocking the cellular multiplication during the metaphase. It is a spindle poison. […] Vincristine binds to these neurofibrils thus causing peripheral neural conduction disorders in patients who are treated for neoplasm. These effects mainly affect the white matter of the axons. […] The repeated ICV administration of vincristine causes a degeneration of the conduction pathways with the appearance of abnormal neurofibrils similar to those observed in Alzheimer's disease. This degeneration mainly affects the periventricular structures. The hippocampi are affected through a decrease of their ramifications, while the cell bodies of the neurons are not altered. […] After this period, a protective layer forms on the glia cells that prevent the diffusion of vincristine from the CSF to the neighboring nerve cells. There is no spontaneously developing Alzheimer's disease in rats that would show the different types of degenerative lesions (beta-amyloid plaques, neurofibrillary and vacuolar degeneration). ICV administration of vincristine, which may cause neurofibrillary degeneration, may be used as a partial animal model of this disease. […]

[2] = tested on: rats given Gp120 (Gp120 model); test: Gp120 model: sound avoidance conditioning (pole climbing test); details: for percentage of avoidance, Day 0 / percentage of avoidance, Day 1 / percentage of avoidance, Day 2 / percentage of avoidance, Day 3 / percentage of avoidance, Day 4: Gp120 10 nM/kg/day for 5 days; for percentage of avoidance, Day 0 / percentage of avoidance, Day 1 / percentage of avoidance, Day 2 / percentage of avoidance, Day 3 / percentage of avoidance, Day 4 / AUC (average area under the learning curve per day): treatment 10 mg/kg/day for 5 days; for percentage of avoidance, Day 0: learning Day 0; for percentage of avoidance, Day 1: learning Day 1; for percentage of avoidance, Day 2: learning Day 2; for percentage of avoidance, Day 3: learning Day 3; for percentage of avoidance, Day 4: learning Day 4; for effect on learning parameters (in words) / AUC (average area under the learning curve per day): Gp120 model; for AUC (average area under the learning curve per day): maximum value 100
From the text: 40 rats were slightly anesthetized by ether, an incision was made into the skin of the skull, and the skull was pierced by means of a dental burr. A metal needle was stereotaxically directed to the lateral ventricle, and then fixed by means of dental cement. Every day of the experiment, the patency of the needle was controlled.
Three days after introducing the needle (recovery from the postoperative shock) the non-anesthetized animals were divided into 2 groups: • one group of 10 rats to which 5 μl of physiological serum was injected • one group of 30 rats to which 5 μl of physiological serum containing Gp120 in an amount of 10 nM/kg was injected
This administration was repeated every day for a period of five days.
Ten days after the last administration of Gp120, the thirty rats were randomly divided into three groups of 10 animals each: • (i) one group of 10 rats received 1 ml/kg/day of normal saline (controls) for a period of 5 days. • (ii) one group of 10 rats received 10 mg/kg/day of Cinnamoyl-Gly-L-Phe-L-PrONH2 dissolved in normal saline for a period of 5 days. • (iii) one group of 10 rats received 10 mg/kg/day of tacrine peros for a period of 5 days
(§2) During the last five days of treatment, the rats were placed under the common learning conditions of the three models between 10.00 a.m. and 11.00 a.m. (see below).
(§3) During the last five days of treatment, at 10.00 a.m. (1 hour after the administration of Cinnamoyl-Gly-Phe-PrONH2), the animals were placed into a learning cage for sound avoidance conditioning (Conditioning avoidance response). The animals learned to climb a pole first to escape from and then to avoid an electric shock. This method was standardized and quantified. (see Le Poncin M., Lafitte J. C., Rapin J. R., Sound Avoidance Conditioning and a Mathematical approach to the description of acquisition performance, Math. Biosciences 59 (1982) 242-268).
(§4) For a period of five days, the animals were placed everyday under these learning conditions for a total of ten tests a day. Results are expressed as percentage of adequate responses, and the kinetics of the responses is represented by a multi-exponential maximum curve.
(§5) The curve maximum represents the learning capacities. The slope of the curve evaluates the learning speed. The area under the curve (AUC) represents a good evaluation of all conditioning parameters. The maximum value of the area under the curve is 500, if the animals show 100% adequate responses as early as Day 0. In fact, an average area under the curve is calculated per day, what amounts to a maximum value of 100. In the absolute control animals, this average area under the curve is equal to 40+/−4.

hippocampal neurons = test: Gp120 model: neuronal count in the CA III layers of the hippocampus; details: percentage of the control group, treatment 10 mg/kg/day for 5 days
Method: After the last learning session, the rats were sacrificed by means of decapitation, and the brain was isolated and frozen to −80° C. with liquid nitrogen. Cuts of a thickness of 50 μm were obtained in a “cryo-cut”, and the neurons are counted in the CA III layers of the hippocampus under a microscope. The results are expressed as percentage of the control group.

[3] = tested on: rats given dexamethasone (dexamethasone model); test: Dexamethasone model: sound avoidance conditioning; details: for percentage of avoidance, Day 0 / percentage of avoidance, Day 1 / percentage of avoidance, Day 2 / percentage of avoidance, Day 3 / percentage of avoidance, Day 4: dexamethasone 50 mg/kg/day; for percentage of avoidance, Day 0: learning Day 0; for percentage of avoidance, Day 1: learning Day 1; for percentage of avoidance, Day 2: learning Day 2; for percentage of avoidance, Day 3: learning Day 3; for percentage of avoidance, Day 4: learning Day 4; for effect on learning capacity (in words) / AUC (average area under the learning curve per day): dexamethasone model; for AUC (average area under the learning curve per day): maximum value 100
Method: as §1, §2, §3, §4, §5

[4] = tested on: rats given vincristine (vincristine model); test: Vincristine model: sound avoidance conditioning; details: for percentage of avoidance, Day 0 / percentage of avoidance, Day 1 / percentage of avoidance, Day 2 / percentage of avoidance, Day 3 / percentage of avoidance, Day 4: vincristine 5 μg/kg/day for 5 days; for percentage of avoidance, Day 0: learning Day 0; for percentage of avoidance, Day 1: learning Day 1; for percentage of avoidance, Day 2: learning Day 2; for percentage of avoidance, Day 3: learning Day 3; for percentage of avoidance, Day 4: learning Day 4; for AUC pro Tag: average area under the learning curve per day, maximum value 100
Method: Rats were kept and treated as described above in 3. Then they were divided into the following groups: • one group of 10 rats which received 5 μl/day of physiological serum over a period of 5 days • one group of 30 rats which received 5 μl/day of physiological serum containing 5 μg/kg vincristine over a period of 5 days
A dosage of 5 μg/kg/day causes a 40 to 60% loss of the hippocampal arborization.
After the last administration, the second group of 30 rats was divided at random into three sub-groups and treated as described above in 3.
as §3, §4, §5

Structure (SMILES)	percentage of avoidance, Day 0 [2] [%]	percentage of avoidance, Day 1 [2]	percentage of avoidance, Day 2 [2]	percentage of avoidance, Day 3 [2]	percentage of avoidance, Day 4 [2]	effect on learning parameters (in words) [2]	AUC (average area under the learning curve per day) [2]	Percentage of hippocampal neurons (hippocampal neurons)	percentage of avoidance, Day 0 [3] [%]	percentage of avoidance, Day 1 [3]	percentage of avoidance, Day 2 [3]	percentage of avoidance, Day 3 [3]	percentage of avoidance, Day 4 [3]	effect on learning capacity (in words) [3]	AUC (average area under the learning curve per day) [3]	Type I receptors in Femtomol/mg protein [1]	effect on number of receptors of hippocampus neurons (in words) [1]	percentage of avoidance, Day 0 [4] [%]	percentage of avoidance, Day 1 [4]	percentage of avoidance, Day 2 [4]	further results
C[C@@H]1C[C@H]2[C@@H]3CCC4=CC(=O)C=C[C@]4(C)[C@@]3(F)[C@@H](O)C[C@]2(C)[C@@]1(O)C(=O)CO [dexamethasone]	–	–	–	–	–	–	–	–	–	–	–	–	–	–	–	–	–	–	–	–	decrease in the number of corticoide receptors in the hippocampus ([1]; dexamethasone, dosage and treatment time of this experiment): ~60%
CC[C@]1(O)C[C@H]2CN(CCc3c([nH]c4ccccc34)[C@@](C(=O)OC)(c3cc4c(cc3OC)N(C=O)[C@H]3[C@@](O)(C(=O)OC)[C@H](OC(C)=O)[C@]5(CC)C=CCN6CC[C@]43[C@@H]65)C2)C1 [vincristine]	–	–	–	–	–	–	–	–	–	–	–	–	–	–	–	–	–	–	–	–	loss of the hippocampal arborization (hippocampal arborization): 40 to 60%
NC(=O)[C@@H]1CCCN1C(=O)[C@H](Cc1ccccc1)NC(=O)CNC(=O)C=Cc1ccccc1 [tripeptide derivative, cinnamoyl-glycyl-L-phenylalanyl-L-prolineamide]	0	5 +/− 2%	**18 +/− 2%	**32 +/− 2%	**43 +/− 3%	improvement of the learning capacities	**19.6 +/− 1.8	*54 ± 3%	0	8 +/− 3%	**28 +/− 3%	**68 +/− 3%	**77 +/− 3%	considerably restores the learning capacity	**36.2 +/− 1.2	**85 ± 9 Femtomol/mg protein	significant increase of the number of receptors	0	5 +/− 2%	**20 +/− 2%	effect on learning parameters (in words) ([2]; listed as Cinnamoyl-Gly-Phe-ProNH2): partly restores the learning parameters; percentage of avoidance, Day 3 [4]: **45 +/− 3%; percentage of avoidance, Day 4 [4]: **53 +/− 3%; AUC pro Tag ([4]; vincristine model): **24.6 +/− 1.0
Nc1c2c(nc3ccccc13)CCCC2 [tacrine]	0	5 +/− 2%	**18 +/− 2%	**31 +/− 3%	**42 +/− 4%	partly restores the learning parameters	19.4 +/− 2.2	45 ± 3%	0	5 +/− 2%	15 +/− 3%	42 +/− 4%	52 +/− 4%	does not show any effect	22.8 +/− 1.3	46 ± 5 Femtomol/mg protein	does not show any effect	0	2 +/− 1%	7 +/− 2%	percentage of avoidance, Day 3 [4]: 19 +/− 2%; percentage of avoidance, Day 4 [4]: 28 +/− 3%; effect on learning capacities (in words) ([4]; vincristine model): does not show an effect; AUC pro Tag ([4]; vincristine model): 11.2 +/− 0.8
